From PubChem BioAssay (NCI)
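Results reflect a 48-hour exposure of cells in 96-well plates to compound at five concentrations. At the GI50, growth is halved. TGI: concentration producing complete growth inhibition.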

What was measured:
Experiment in all cases: NCI tumour cell line growth inhibition, 48 h
MDA-MB-435 = system: MDA-MB-435
SK-MEL-28 melanoma = system: SK-MEL-28 melanoma
CCRF-CEM leukemia = system: CCRF-CEM leukemia
LOX IMVI melanoma = system: LOX IMVI melanoma
TK-10 renal = system: TK-10 renal
MOLT-4 leukemia = system: MOLT-4 leukemia
A498 renal = system: A498 renal
ACHN renal = system: ACHN renal
RPMI-8226 leukemia = system: RPMI-8226 leukemia
HOP-92 NSCLC = system: HOP-92 NSCLC
SW-620 colon = system: SW-620 colon
SN12C renal = system: SN12C renal
IGROV1 ovarian = system: IGROV1 ovarian
RXF 393 renal = system: RXF 393 renal
SK-OV-3 ovarian = system: SK-OV-3 ovarian
BT-549 breast = system: BT-549 breast
UACC-257 melanoma = system: UACC-257 melanoma
KM12 colon = system: KM12 colon
UO-31 renal = system: UO-31 renal
EKVX NSCLC = system: EKVX NSCLC
HCT-15 colon = system: HCT-15 colon
CAKI-1 renal = system: CAKI-1 renal
T-47D breast = system: T-47D breast
HT29 colon = system: HT29 colon
COLO 205 colon = system: COLO 205 colon
MALME-3M melanoma = system: MALME-3M melanoma
SNB-19 CNS = system: SNB-19 CNS
HOP-62 NSCLC = system: HOP-62 NSCLC
OVCAR-8 ovarian = system: OVCAR-8 ovarian
NCI-H460 lung = system: NCI-H460 lung
SF-268 CNS = system: SF-268 CNS
NCI/ADR-RES ovarian = system: NCI/ADR-RES ovarian
OVCAR-5 ovarian = system: OVCAR-5 ovarian
SR leukemia = system: SR leukemia
HCT-116 colon = system: HCT-116 colon
K-562 leukemia = system: K-562 leukemia
NCI-H23 lung = system: NCI-H23 lung
M14 melanoma = system: M14 melanoma
U251 CNS = system: U251 CNS
MDA-MB-231 breast = system: MDA-MB-231 breast
SK-MEL-5 melanoma = system: SK-MEL-5 melanoma
MCF7 breast = system: MCF7 breast
786-0 renal = system: 786-0 renal
SF-295 CNS = system: SF-295 CNS
PC-3 prostate = system: PC-3 prostate
NCI-H522 lung = system: NCI-H522 lung
OVCAR-4 ovarian = system: OVCAR-4 ovarian
SK-MEL-2 melanoma = system: SK-MEL-2 melanoma
A549 NSCLC = system: A549 NSCLC
OVCAR-3 ovarian = system: OVCAR-3 ovarian
SF-539 CNS = system: SF-539 CNS
HL-60(TB) leukemia = system: HL-60(TB) leukemia
NCI-H226 lung = system: NCI-H226 lung
SNB-75 CNS = system: SNB-75 CNS
UACC-62 melanoma = system: UACC-62 melanoma
DU-145 prostate = system: DU-145 prostate
HS 578T breast = system: HS 578T breast

Q: Which results are given for c1ccc(Cn2cc3c(c2-c2ccccc2)CCc2cnoc2-3)cc1?
A: GI50 (MDA-MB-435): 1.89 µM; TGI (MDA-MB-435): 7.18 µM; GI50 (SK-MEL-28 melanoma): 6.58 µM; TGI (SK-MEL-28 melanoma): > 100 µM; GI50 (CCRF-CEM leukemia): 3.59 µM; TGI (CCRF-CEM leukemia): > 100 µM; GI50 (LOX IMVI melanoma): 4.23 µM; TGI (LOX IMVI melanoma): > 100 µM; GI50 (TK-10 renal): 8.22 µM; TGI (TK-10 renal): > 100 µM; GI50 (MOLT-4 leukemia): 2.19 µM; TGI (MOLT-4 leukemia): 6.98 µM; GI50 (A498 renal): 7.33 µM; TGI (A498 renal): > 100 µM; GI50 (ACHN renal): 9.36 µM; TGI (ACHN renal): > 100 µM; GI50 (RPMI-8226 leukemia): 3.1 µM; TGI (RPMI-8226 leukemia): > 100 µM; GI50 (HOP-92 NSCLC): 18 µM; TGI (HOP-92 NSCLC): > 100 µM; GI50 (SW-620 colon): 3.15 µM; TGI (SW-620 colon): 53.9 µM; GI50 (SN12C renal): 7.83 µM; TGI (SN12C renal): > 100 µM; GI50 (IGROV1 ovarian): 5.51 µM; TGI (IGROV1 ovarian): > 100 µM; GI50 (RXF 393 renal): 4.94 µM; TGI (RXF 393 renal): 61.2 µM; GI50 (SK-OV-3 ovarian): 7.36 µM; TGI (SK-OV-3 ovarian): > 100 µM; GI50 (BT-549 breast): 6.63 µM; TGI (BT-549 breast): 56.1 µM; GI50 (UACC-257 melanoma): 17.7 µM; TGI (UACC-257 melanoma): > 100 µM; GI50 (KM12 colon): 3.27 µM; TGI (KM12 colon): 47 µM; GI50 (UO-31 renal): 7.65 µM; TGI (UO-31 renal): > 100 µM; GI50 (EKVX NSCLC): 5.53 µM; TGI (EKVX NSCLC): > 100 µM; GI50 (HCT-15 colon): 3.72 µM; TGI (HCT-15 colon): > 100 µM; GI50 (CAKI-1 renal): 4.4 µM; TGI (CAKI-1 renal): > 100 µM; GI50 (T-47D breast): 4.5 µM; TGI (T-47D breast): > 100 µM; GI50 (HT29 colon): 3.11 µM; TGI (HT29 colon): 33.4 µM; GI50 (COLO 205 colon): 2.9 µM; TGI (COLO 205 colon): 11.1 µM; GI50 (MALME-3M melanoma): 3.13 µM; TGI (MALME-3M melanoma): 30.1 µM; GI50 (SNB-19 CNS): 4.24 µM; TGI (SNB-19 CNS): > 100 µM; GI50 (HOP-62 NSCLC): 6.76 µM; TGI (HOP-62 NSCLC): > 100 µM; GI50 (OVCAR-8 ovarian): 8.05 µM; TGI (OVCAR-8 ovarian): > 100 µM; GI50 (NCI-H460 lung): 3.41 µM; TGI (NCI-H460 lung): 22.1 µM; GI50 (SF-268 CNS): 8.05 µM; TGI (SF-268 CNS): > 100 µM; GI50 (NCI/ADR-RES ovarian): 2.75 µM; TGI (NCI/ADR-RES ovarian): 9.53 µM; GI50 (OVCAR-5 ovarian): 33 µM; TGI (OVCAR-5 ovarian): > 100 µM; GI50 (SR leukemia): 1.96 µM; TGI (SR leukemia): 9.28 µM; GI50 (HCT-116 colon): 3.27 µM; TGI (HCT-116 colon): > 100 µM; GI50 (K-562 leukemia): 2.14 µM; TGI (K-562 leukemia): 7.31 µM; GI50 (NCI-H23 lung): 4.92 µM; TGI (NCI-H23 lung): 69.2 µM; GI50 (M14 melanoma): 4.89 µM; TGI (M14 melanoma): > 100 µM; GI50 (U251 CNS): 3.65 µM; TGI (U251 CNS): > 100 µM; GI50 (MDA-MB-231 breast): 5.68 µM; TGI (MDA-MB-231 breast): > 100 µM; GI50 (SK-MEL-5 melanoma): 2.79 µM; TGI (SK-MEL-5 melanoma): 12.8 µM; GI50 (MCF7 breast): 3.44 µM; TGI (MCF7 breast): > 100 µM; GI50 (786-0 renal): 6.7 µM; TGI (786-0 renal): 69.1 µM; GI50 (SF-295 CNS): 3.16 µM; TGI (SF-295 CNS): 31.5 µM; GI50 (PC-3 prostate): 6.13 µM; TGI (PC-3 prostate): > 100 µM; GI50 (NCI-H522 lung): 3.04 µM; TGI (NCI-H522 lung): > 100 µM; GI50 (OVCAR-4 ovarian): 10.7 µM; TGI (OVCAR-4 ovarian): > 100 µM; GI50 (SK-MEL-2 melanoma): 11.5 µM; TGI (SK-MEL-2 melanoma): > 100 µM; GI50 (A549 NSCLC): 5.73 µM; TGI (A549 NSCLC): > 100 µM; GI50 (OVCAR-3 ovarian): 3.73 µM; TGI (OVCAR-3 ovarian): 24.7 µM; GI50 (SF-539 CNS): 5.34 µM; TGI (SF-539 CNS): 38.9 µM; GI50 (HL-60(TB) leukemia): 1.75 µM; TGI (HL-60(TB) leukemia): 4.09 µM; GI50 (NCI-H226 lung): 14.7 µM; TGI (NCI-H226 lung): > 100 µM; GI50 (SNB-75 CNS): 3.27 µM; TGI (SNB-75 CNS): 63.4 µM; GI50 (UACC-62 melanoma): 4.48 µM; TGI (UACC-62 melanoma): > 100 µM; GI50 (DU-145 prostate): 20.1 µM; TGI (DU-145 prostate): > 100 µM; GI50 (HS 578T breast): 3.88 µM; TGI (HS 578T breast): 26.4 µM
